Measurements published in paper PMC11277489, “Novel Piperazine Derivatives of Vindoline as Anticancer Agents” (International Journal of Molecular Sciences, 2024).
Where two headings read alike, the source gives them in different places.

Columns and labels:
SF-539 = assay: NCI60 five-dose screen, CNS Cancer; format: cell-based; details: Homo sapiens; SF-539, CNS Cancer; five-dose screen; read-out: GI50
MDA-MB-468 = assay: NCI60 one-dose screen (10 μM), Breast Cancer; format: cell-based; details: Homo sapiens
SNB-75 = assay: NCI60 one-dose screen (10 μM), CNS Cancer; format: cell-based, human; details: Homo sapiens
HS 578T = assay: NCI60 five-dose screen, Breast Cancer; format: cell-based; details: Homo sapiens; HS 578T, Breast Cancer; five-dose screen; read-out: GI50
U251 = assay: NCI60 one-dose screen (10 μM), CNS Cancer; format: cell-based; details: Homo sapiens
HOP-92 [1] = assay: NCI60 one-dose screen (10 μM), Non-small Cell Lung Cancer; format: cell-based; details: Homo sapiens
CAKI-1 = assay: NCI60 five-dose screen, Renal Cancer; format: cell-based; details: Homo sapiens; CAKI-1, Renal Cancer; five-dose screen; read-out: GI50
[2] = test system: 60 human tumor cell lines (NCI60); assay: NCI60 one-dose screen (10 μM), whole panel; format: cell-based; details: read-out: Growth percent rate, Mean
HOP-62 = assay: NCI60 five-dose screen, Non-small Cell Lung Cancer; format: cell-based; details: Homo sapiens; HOP-62, Non-small Cell Lung Cancer; five-dose screen; read-out: GI50
HCT-116 = assay: NCI60 five-dose screen, Colon Cancer; format: cell-based; details: Homo sapiens; HCT-116, Colon Cancer; five-dose screen; read-out: GI50
NCI-H226 = assay: NCI60 one-dose screen (10 μM), Non-small Cell Lung Cancer; format: cell-based; details: Homo sapiens
NCI/ADR-RES [3] = assay: NCI60 one-dose screen (10 μM), Ovarian Cancer; format: cell-based; details: Homo sapiens, read-out: Growth percent rate
SK-OV-3 = assay: NCI60 one-dose screen (10 μM), Ovarian Cancer; format: cell-based; details: Homo sapiens
MDA-MB231ATCC = assay: NCI60 five-dose screen, Breast Cancer; format: cell-based; details: Homo sapiens, MDA-MB-231; MDA-MB231ATCC, Breast Cancer; five-dose screen; read-out: GI50
IGROV1 = assay: NCI60 five-dose screen, Ovarian Cancer; format: cell-based; details: Homo sapiens, IGROV-1; IGROV1, Ovarian Cancer; five-dose screen; read-out: GI50
NCI/ADR-RES [4] = assay: NCI60 five-dose screen, Ovarian Cancer; format: cell-based; details: Homo sapiens, Ovarian Cancer, five-dose screen, read-out: GI50
MDA-MB-435 = assay: NCI60 five-dose screen, Melanoma; format: cell-based; details: Homo sapiens; MDA-MB-435, Melanoma; five-dose screen; read-out: GI50
SNB-19 = assay: NCI60 five-dose screen, CNS Cancer; format: cell-based; details: Homo sapiens; SNB-19, CNS Cancer; five-dose screen; read-out: GI50
DU-145 [5] = assay: NCI60 five-dose screen, Prostate Cancer; format: cell-based; details: Homo sapiens; DU-145, Prostate Cancer; five-dose screen; read-out: GI50
SF-268 = assay: NCI60 five-dose screen, CNS Cancer; format: cell-based; details: Homo sapiens; SF-268, CNS Cancer; five-dose screen; read-out: GI50
K-562 = assay: NCI60 five-dose screen, Leukemia; format: cell-based; details: Homo sapiens, K562; K-562, Leukemia; five-dose screen; read-out: GI50
ACHN = assay: NCI60 five-dose screen, Renal Cancer; format: cell-based; details: Homo sapiens, Renal Cancer, five-dose screen, read-out: GI50
PC-3 = assay: NCI60 one-dose screen (10 μM), Prostate Cancer; format: cell-based; details: Homo sapiens
NCI-H460 [6] = assay: NCI60 five-dose screen, Non-small Cell Lung Cancer; format: cell-based; details: Homo sapiens; NCI-H460, Non-small Cell Lung Cancer; five-dose screen; read-out: GI50
NCI-H460 [7] = assay: NCI60 one-dose screen (10 μM), Non-small Cell Lung Cancer; format: cell-based; details: Homo sapiens
DU-145 [8] = assay: NCI60 one-dose screen (10 μM), Prostate Cancer; format: cell-based; details: Homo sapiens
A498 = assay: NCI60 one-dose screen (10 μM), Renal Cancer; format: cell-based; details: Homo sapiens
OVCAR-4 = assay: NCI60 five-dose screen, Ovarian Cancer; format: cell-based; details: Homo sapiens; OVCAR-4, Ovarian Cancer; five-dose screen; read-out: GI50
HOP-92 [9] = assay: NCI60 five-dose screen, Non-small Cell Lung Cancer; format: cell-based; details: Homo sapiens; HOP-92, Non-small Cell Lung Cancer; five-dose screen; read-out: GI50
LOX IMVI = assay: NCI60 five-dose screen, Melanoma; format: cell-based; details: Homo sapiens, Melanoma, five-dose screen, read-out: GI50
HL-60(TB) = assay: NCI60 five-dose screen, Leukemia; format: cell-based; details: Homo sapiens; HL-60(TB), Leukemia; five-dose screen; read-out: GI50
UACC-62 [10] = assay: NCI60 five-dose screen, Melanoma; format: cell-based; details: Homo sapiens; UACC-62, Melanoma; five-dose screen; read-out: GI50
HT29 = assay: NCI60 five-dose screen, Colon Cancer; format: cell-based; details: Homo sapiens, HT-29; HT29, Colon Cancer; five-dose screen; read-out: GI50
OVCAR-5 [11] = assay: NCI60 five-dose screen, Ovarian Cancer; format: cell-based; details: Homo sapiens; OVCAR-5, Ovarian Cancer; five-dose screen; read-out: GI50
BT-549 = assay: NCI60 one-dose screen (10 μM), Breast Cancer; format: cell-based; details: Homo sapiens
TK-10 = assay: NCI60 five-dose screen, Renal Cancer; format: cell-based; details: Homo sapiens; TK-10, Renal Cancer; five-dose screen; read-out: GI50
T-47D [12] = assay: NCI60 five-dose screen, Breast Cancer; format: cell-based; details: Homo sapiens, T47D; T-47D, Breast Cancer; five-dose screen; read-out: GI50
UACC-62 [13] = assay: NCI60 one-dose screen (10 μM), Melanoma; format: cell-based; details: Homo sapiens
SK-MEL-5 = assay: NCI60 five-dose screen, Melanoma; format: cell-based; details: Homo sapiens; SK-MEL-5, Melanoma; five-dose screen; read-out: GI50
SR = assay: NCI60 one-dose screen (10 μM), Leukemia; format: cell-based; details: Homo sapiens, read-out: Growth percent rate
UO-31 = assay: NCI60 one-dose screen (10 μM), Renal Cancer; format: cell-based; details: Homo sapiens, UO-31, read-out: Growth percent rate
MDA-MB-231/ATCC = assay: NCI60 one-dose screen (10 μM), Breast Cancer; format: cell-based, human; details: Homo sapiens, MDA-MB-231, read-out: Growth percent rate
OVCAR-5 [14] = assay: NCI60 one-dose screen (10 μM), Ovarian Cancer; format: cell-based; details: Homo sapiens, OVCAR-5, read-out: Growth percent rate
T-47D [15] = assay: NCI60 one-dose screen (10 μM), Breast Cancer; format: cell-based; details: Homo sapiens, T47D, read-out: Growth percent rate

CC[C@]12C=CCN3CC[C@@]4(c5ccc(OC)cc5N(C)[C@H]4[C@@](O)(C(=O)OC)[C@@H]1OC(=O)CCC(=O)N1CCN(C(c4ccc(F)cc4)c4ccc(F)cc4)CC1)[C@@H]32 [Compound 31]
GI50 (SF-539): 2020 nM
activity at 10 µM (MDA-MB-468; 10 μM, MDA-MB-468, Breast Cancer, read-out: Growth percent rate): -69.1%
activity at 10 µM (SNB-75; 10 μM, SNB-75, CNS Cancer, read-out: Growth percent rate): -43.5%
GI50 (HS 578T): 1740 nM
activity at 10 µM (U251; U-251, 10 μM, U251, CNS Cancer, read-out: Growth percent rate): -15.1%
activity at 10 µM (HOP-92 [1]; 10 μM, HOP-92, Non-small Cell Lung Cancer, read-out: Growth percent rate): -44.9%
GI50 (CAKI-1): 3.07 µM
activity at 10 µM ([2]; 10 μM, mean over 60 human cancer cell lines): -41.8%
GI50 (HOP-62): 2550 nM
GI50 (HCT-116): 2720 nM
activity at 10 µM (NCI-H226; 10 μM, NCI-H226, Non-small Cell Lung Cancer, read-out: Growth percent rate): -32.4%
activity at 10 µM (NCI/ADR-RES [3]; 10 μM, Ovarian Cancer): -62.1%
activity at 10 µM (SK-OV-3; 10 μM, SK-OV-3, Ovarian Cancer, read-out: Growth percent rate): -15.6%
GI50 (MDA-MB231ATCC): 3.02 µM
GI50 (IGROV1): 2500 nM
GI50 (NCI/ADR-RES [4]): 1950 nM
GI50 (MDA-MB-435): 2700 nM
GI50 (SNB-19): 3.58 µM
GI50 (DU-145 [5]): 2670 nM
GI50 (SF-268): 2980 nM
GI50 (K-562): 2920 nM
GI50 (ACHN): 2060 nM
activity at 10 µM (PC-3; 10 μM, PC-3, Prostate Cancer, read-out: Growth percent rate): -28.5%
GI50 (NCI-H460 [6]): 1930 nM
activity at 10 µM (NCI-H460 [7]; 10 μM, NCI-H460, Non-small Cell Lung Cancer, read-out: Growth percent rate): -60.9%
activity at 10 µM (DU-145 [8]; 10 μM, DU-145, Prostate Cancer, read-out: Growth percent rate): -3.52%
activity at 10 µM (A498; 10 μM, A498, Renal Cancer, read-out: Growth percent rate): -61.6%
GI50 (OVCAR-4): 1620 nM
GI50 (HOP-92 [9]): 1990 nM
GI50 (LOX IMVI): 1800 nM
GI50 (HL-60(TB)): 1930 nM
GI50 (UACC-62 [10]): 1920 nM
GI50 (HT29): 1760 nM
GI50 (OVCAR-5 [11]): 2180 nM
activity at 10 µM (BT-549; 10 μM, BT-549, Breast Cancer, read-out: Growth percent rate): -60.6%
GI50 (TK-10): 2570 nM
GI50 (T-47D [12]): 2470 nM
activity at 10 µM (UACC-62 [13]; 10 μM, UACC-62, Melanoma, read-out: Growth percent rate): -84.3%
GI50 (SK-MEL-5): 1840 nM

CC[C@]12C=CCN3CC[C@@]4(c5ccc(OC)cc5N(C)[C@H]4[C@@](O)(C(=O)OC)[C@@H]1OC(=O)CCC(=O)N1CCN(C(=O)c4ccco4)CC1)[C@@H]32 [Compound 32]
activity at 10 µM (SR): 117%
activity at 10 µM (MDA-MB-468; MDA-MB-468, read-out: Growth percent rate): 78%
activity at 10 µM (SNB-75; SNB-75, read-out: Growth percent rate): 109%
activity at 10 µM (U251; U-251, read-out: Growth percent rate): 97.4%
activity at 10 µM (HOP-92 [1]; HOP-92, read-out: Growth percent rate): 92.4%
activity at 10 µM ([2]; Homo sapiens): 97.2%
activity at 10 µM (NCI-H226; NCI-H226, read-out: Growth percent rate): 115%
activity at 10 µM (NCI/ADR-RES [3]): 106%
activity at 10 µM (UO-31): 98.8%
activity at 10 µM (SK-OV-3; SK-OV-3, read-out: Growth percent rate): 111%
activity at 10 µM (MDA-MB-231/ATCC): 91.1%
activity at 10 µM (PC-3; PC-3, read-out: Growth percent rate): 90.6%
activity at 10 µM (NCI-H460 [7]; NCI-H460, read-out: Growth percent rate): 107%
activity at 10 µM (DU-145 [8]; DU-145, read-out: Growth percent rate): 116%
activity at 10 µM (OVCAR-5 [14]): 105%
activity at 10 µM (A498; A498, read-out: Growth percent rate): 117%
activity at 10 µM (T-47D [15]): 92.5%
activity at 10 µM (BT-549; BT-549, read-out: Growth percent rate): 122%
activity at 10 µM (UACC-62 [13]; UACC-62, read-out: Growth percent rate): 59.5%
